SMILES strings stand for the structures. Active and inactive are the calls of the source. Rule as the data show it: active = IC50 below about 20 µM; inactive = the rest.

This assay concerns Gli-responsive luciferase reporter cells, SUFU pathway antagonism. Kind of assay: blockers of Gli reporter signaling – cell-based, luciferase luminescence, uHTS hits, dose response (AID 602464).

The IC50 is the concentration at which inhibition is half-maximal. Turning to `CN(Cc1ccc(OCC(O)CN2CCCCC2)cc1)Cc1ccnc2ccccc12` (stereo unspecified), the IC50 was 8.47 µM.
As for `CC1=CC(C)C2(COC(c3ccc[n+](C)c3)OC2)C(C)C1` (stereo unspecified), the IC50 is 17.9 µM.
To `C=CCNC(=S)/N=c1/ccccn1Cc1ccccc1` belongs 11.9 µM; to `COc1ccc(-c2c(C#N)c(N)nc3c2CCc2ccccc2-3)cc1OC`, 6.7 µM; to `O=C(Cn1c(-c2ccccc2)c[n+]2ccsc12)c1ccc(Br)cc1`, > 20 µM (inactive).
To `Cc1ccc(S(=O)(=O)N2CCN(C(=O)C3CCN(c4ncnc5sc(C)c(C)c45)CC3)CC2)c(C)c1` belongs 7.57 µM; to `NC(=O)c1ccccc1OCC(=O)N1CCC(Cc2ccccc2)CC1`, 5.61 µM.
Consider `CC1CN(S(=O)(=O)c2ccc(C(=O)Nc3nc(-c4cc5ccccc5o4)cs3)cc2)CC(C)O1` (stereo unspecified), for which the IC50 was 1.26 µM.
As for `CCOC(=O)N1CCN(C(=O)c2ccc(CSc3ccc(Cl)cc3)cc2)CC1`, the IC50 is 10.8 µM.
With `COc1ccc(C(C(=O)NC2CCCCC2)N(C(=O)CCl)c2ccc(Cl)cc2)cc1` (stereo unspecified), the IC50 was 4.5 µM.
To `COc1ccc(-n2c(-c3ccc(Cl)cc3)c[n+]3c2CCc2ccccc2-3)cc1` belongs 1.78 µM.
As for `O=C(N[C@@H]1C/C=C\C[C@@H](CC(=O)N(CCO)Cc2ccccc2)C(=O)NCCOC1=O)OCC1c2ccccc2-c2ccccc21`, the IC50 is 12.7 µM.
To `COc1ccc(-n2cc(-c3ccc(OC(F)F)cc3)[n+]3c2CCCCC3)cc1` belongs 2.29 µM.
In the case of `CC(=O)c1cn(Cc2ccccc2F)c2ccccc12`, the IC50 was 8.82 µM.
With `CC[N+]1=C(C)C(C)(C)c2cc(C)ccc21`, the IC50 was 2.06 µM.
To `CCN1C(=O)CCN(C2CCCC2)c2nc(Nc3ccc(C(=O)NC4CCN(C)CC4)cc3OC)ncc21` belongs 3.45 µM; to `COc1ccccc1C(=O)NC(=S)/C=C1/N(C)c2ccccc2C1(C)C`, 8.55 µM; to `CCCCn1c(CN(C)Cc2ccccc2)nc2c1c(=O)n(C)c(=O)n2C`, 6.85 µM.
As to `CCN(CC)S(=O)(=O)c1ccc(S(=O)(=O)Nc2c(C)nn(C)c2C)cc1`, the IC50 was 6.15 µM.
As to `c1ccc(-c2c[n+]3c(n2-c2ccccc2)CCC3)cc1`, the IC50 was > 20 µM (inactive).
To `CCOC(=O)c1c(NC(=O)COc2ncnc3ccccc23)sc(C(C)=O)c1C` belongs 10.1 µM.
To `CCOc1ccc(-n2c(-c3ccc(Cl)cc3)c[n+]3c2SCC3)cc1` belongs 3.49 µM.
`Cc1c(C(C)C)c(=O)n(-c2ccc(S(=O)(=O)NC3CCCCC3)cc2)n1C`: the IC50 was 4.15 µM.
Take `CC(C)Cc1ccc(C(C)C(=O)Nc2cccnc2)cc1` (stereo unspecified): the IC50 was 13 µM.
To `COC(=O)C1=C(c2cc3ccccc3o2)C[C@@H]2CC[C@H]1N2C(=O)N1CCC(C)CC1` belongs 16.3 µM.
To `CC1CCN(Cc2c(C(=O)N/N=C/c3ccccc3O)nnn2-c2nonc2N)CC1` belongs 5.56 µM; to `CC(=O)c1ccc(N2CCN(c3ccc(C(F)(F)F)cn3)CC2)cc1`, 8.99 µM; to `O=C(c1ccc(C(F)(F)F)cc1)C1CCCN(Cc2ccncc2)C1` (stereo unspecified), 5.26 µM.
To `Cc1cc(N/N=C/c2ccc(O)cc2O)nc(-n2nc(C)cc2C)n1` belongs 7.17 µM.
As for `CN(C)CCn1c2ccccc2c2nc3ccc([N+](=O)[O-])cc3cc21`, the IC50 is 7.54 µM.
To `O=C(N[C@H]1C/C=C\C[C@@H](CC(=O)N(CCO)Cc2ccccc2)C(=O)NC[C@H](c2ccccc2)OC1=O)OCC1c2ccccc2-c2ccccc21` belongs 7.18 µM.
To `COc1ccc(C(=O)C[n+]2cc(-c3ccc(OC)cc3)n3c2CCCC3)cc1` belongs 6.41 µM; to `N=c1c(-c2nc3ccccc3[nH]2)cc(C(=O)c2ccco2)nn1-c1ccccc1`, > 20 µM (inactive); to `COc1cc(NS(=O)(=O)c2ccc(C)cc2C)cc(OC)c1OC`, 6.71 µM.
To `CCC(C)[C@H]1CN=C(N)N1CCc1cccc2ccccc12` (stereo partly specified) belongs 6.63 µM; to `CCn1c(/C=C/Nc2ccccc2)[n+](CC)c2ccc(Cl)cc21`, 18.1 µM; to `COc1ccccc1-c1c(-c2ccc(O)cc2O)n[nH]c1C(F)(F)F`, 4.86 µM.
Take `CC(=O)c1cccc(NS(=O)(=O)c2ccc(-c3cnc(C4CC4)o3)cc2)c1`: the IC50 was 8.16 µM.
To `CCCCCn1c(=N)n(CC(O)COc2ccccc2OC)c2ccccc21` (stereo unspecified) belongs 8.43 µM; to `CCCN(CCC)CCNC(=O)c1cc2c(=O)n(C)c3ccccc3c2n1C`, > 20 µM (inactive); to `Cc1nn(-c2ccc(NC(=O)c3ccncc3)cc2)c(C)c1Cl`, 9.25 µM.
To `CC1Cc2cc(S(=O)(=O)N3CCC(C(=O)N4CCN(c5ccccc5F)CC4)CC3)ccc2N1C(=O)C1CC1` (stereo unspecified) belongs 4.27 µM; to `Clc1ccc(-n2cc(-c3ccc(Br)cc3)[n+]3c2CCCCC3)cc1`, 7.04 µM.
To `O=C(Nc1ccccc1)C1=C[C@H](C2CCCCC2)C[C@H](OCCCCO)O1` belongs 0.666 µM.
With `COc1ccc(-c2nn(-c3ccccc3)cc2/C=N/NC(=O)c2ccc(Br)o2)cc1`, the IC50 is 5.42 µM.
Turning to `O=C(c1cc2sccc2n1Cc1ccccc1)N1CCN(c2nc3ccccc3s2)CC1`, the IC50 is 4.67 µM.
To `Cc1nc2ccccc2n1Cc1ccc(Br)cc1` belongs 4.73 µM.
To `CCOc1ccc(NS(=O)(=O)c2cccc(C(=O)N3CCN(C/C=C/c4ccccc4)CC3)c2)cc1` belongs > 20 µM (inactive); to `CCn1c(=NC(=O)CCS(=O)(=O)c2ccccc2)sc2cccc(OC)c21`, 3.11 µM; to `O=C(N/N=C/c1cc2ccccc2nc1Cl)[C@H]1C[C@@H]1c1ccccc1`, 16.4 µM.
To `CCOC(=O)c1c(NC(=O)C(=O)N/N=C/c2ccccc2O)sc2c1CCCCC2` belongs 4.39 µM; to `CCNc1nc(CN2CCCCC2)nc2scc(-c3ccccc3)c12`, 5.95 µM; to `CCCCn1c(SCc2c(C)noc2C)nc2cc(S(N)(=O)=O)ccc21`, 4.21 µM.
For the compound `CCCc1c(CC)c(=N)c2ccccc2n1C`, the IC50 is 12.9 µM.
To `CCCCOCCCNc1ncnc2c1[nH]c1ccccc12` belongs 3.17 µM.
To `CCN(CC)C(=O)c1ccc(S(=O)(=O)N2CCC(c3nc4ccccc4s3)CC2)cc1` belongs 8.85 µM; to `CCN(CC)S(=O)(=O)c1ccc(C)c(NC(=S)N2CCN(Cc3ccc4c(c3)OCO4)CC2)c1`, 12.2 µM.
To `COc1ccccc1CCNC(=O)c1cc(-c2ccncc2)nc2ccc(Br)cc12` belongs > 20 µM (inactive).
Take `CC(=O)c1c(C)[nH]c(C(=O)OCC(=O)Nc2sc3c(c2C#N)CCCC3)c1C`: the IC50 was 5.59 µM.
To `CNc1ccccc1C(C)(C)c1cc(-c2cccc(Br)c2)no1` belongs 2.02 µM; to `CC1CCCCC1NS(=O)(=O)c1ccc(S(=O)(=O)NCc2ccncc2)cc1` (stereo unspecified), 5.58 µM; to `Cc1cc(NC(=O)CSc2nc3c([nH]c4ccccc43)c(=O)n2-c2ccccc2F)no1`, 13.8 µM.
To `CCCCCCn1c(=O)c(C(=O)Nc2cnccn2)c(O)c2ccccc21` belongs 9.19 µM.
To `Cc1ccc(S(=O)(=O)N2CCN(C(=O)c3ccc(S(=O)(=O)N4CCCC4)cc3)CC2)cc1` belongs > 20 µM (inactive); to `CCCCSc1nc2sc3c(c2c(=O)n1-c1ccc(C)cc1)CCN(C)C3`, 17.9 µM.
With `C[C@@H]1COC(=O)[C@H](NC(=O)OCC2c3ccccc3-c3ccccc32)C/C=C\C[C@@H](CC(=O)N[C@@H](CO)Cc2ccccc2)C(=O)N1`, the IC50 was 7.8 µM.
To `COc1ccc(CN2CCC(C(=O)Nc3ccc(Oc4cccnc4)cc3)CC2)c(C)c1C` belongs 12.6 µM; to `CCCCCCCN1C2=NCCCN2c2ccccc21`, 11.4 µM; to `CCCN1CCC(=O)N([C@H](CSc2ccc(OC)cc2)Cc2ccccc2)CC1`, 9.77 µM.
To `O=C(Nc1ccccc1)C1=C[C@@H](C2CCCCC2)C[C@@H](OCCCCO)O1` belongs 1.96 µM; to `O=C(N[C@@H]1C/C=C\C[C@H](CC(=O)N(CCO)Cc2ccccc2)C(=O)N[C@@H](Cc2c[nH]c3ccccc23)COC1=O)OCC1c2ccccc2-c2ccccc21`, 10.9 µM.
To `O=C1N/C(=C\c2ccc(O)cc2)C(O)=C1C=NCc1ccccc1` belongs 4.73 µM; to `Cc1cccnc1CN1CCN(C(=O)c2cc(COc3ccc4ncccc4c3)on2)CC1`, 5.18 µM; to `O=C(Cn1cc(C(=O)C2CC2)c2ccccc21)Nc1ccccc1Cl`, 11.2 µM.
For `S=C(Nc1ccccc1)N1CCC(Cc2ccccc2)CC1`, the IC50 is 5.67 µM.
To `Cc1ccc(OCCOC(=O)c2cc(S(=O)(=O)N3CCCCC3)ccc2N2CCOCC2)cc1` belongs > 20 µM (inactive).
To `CCCCCCCNC1=CC(=O)CC(c2ccccc2)C1` (stereo unspecified) belongs 8.04 µM; to `Cc1csc2ncnc(NCCc3ccccn3)c12`, 7.09 µM; to `CCOc1ccc(S(=O)(=O)NCc2ccncc2)cc1NC(=O)c1ccccc1`, 0.94 µM.
To `C=CCNc1nc2c(c(=O)n(C)c(=O)n2C)n1Cc1ccc(F)cc1` belongs 6.15 µM; to `Cc1cccc(C)c1NC(=S)N(CCN1CCCCCC1)Cc1ccco1`, > 20 µM (inactive).
As to `CCn1c(C)nc2cc(-c3nnc(-c4c(-c5ccccc5)noc4C)o3)ccc21`, the IC50 was 7.36 µM.
To `CCC(C)NS(=O)(=O)c1ccc(S(=O)(=O)N2CCCC3(CCCCC3)C2)cc1` (stereo unspecified) belongs > 20 µM (inactive); to `COc1ccc(CNc2ncnc3c2[nH]c2ccccc23)cc1`, 2.79 µM; to `Cc1c(CCOC(=O)C23CC4CC(CC(C)(C4)C2)C3)sc[n+]1Cc1ccccc1`, > 20 µM (inactive).
To `O=C(C[C@H]1C/C=C\C[C@@H](NC(=O)OCC2c3ccccc3-c3ccccc32)C(=O)O[C@@H](c2ccccc2)CNC1=O)N[C@H](CO)Cc1ccccc1` belongs 7.67 µM; to `CN(CCOc1ccc(Cl)cc1)C(=O)c1cccc(S(=O)(=O)N2CCN(c3ccc(F)cc3)CC2)c1`, 5.59 µM.
As to `O=C(Nc1cccc(C(F)(F)F)c1)C1CCN(S(=O)(=O)c2ccc(N3CCCC3=O)cc2)CC1`, the IC50 is 5.45 µM.
To `COc1ccc(CNc2cc(C)nc3ncnn23)c(OC)c1` belongs 10.6 µM.
With `CC(NC(=O)c1cc2c(=O)n3ccccc3nc2n(CC2CCCO2)c1=N)c1ccccc1` (stereo unspecified), the IC50 was > 20 µM (inactive).
Regarding `CCOc1ccc(-c2cc(C)[n+](CCO)c(-c3ccc(OCC)cc3)c2)cc1`, the IC50 is 14.8 µM.

The values above are taken from PubChem BioAssay AID602464 (Sanford-Burnham Center for Chemical Genomics, 2012).
